Data published in patent US20070026080A1, “Manufacturing process for tigecycline” (Wyeth, priority 2005, published 2007).

Test: Strength and degradation profile of tigecycline 20 mg/mL bulk solutions by reversed phase HPLC (effect of temperature, time, pH, dissolved oxygen; Runs A to O)
Format: physicochemical
Settings: pH 7.7, Oxygen = 0.1 mg/L
Method: The contents of the sample vials are dissolved in diluent. The sample solution is diluted, if necessary, and chromatographed on a reversed phase column using gradient elution. Impurities are determined by comparing the impurity peak areas in the sample preparation chromatogram to the average area of tigecycline peaks in the standard preparation chromatograms obtained concomitantly.
Chromatographic Column—Length about 15 cm, inside diameter about 4.6 mm, packed with Inertsil ODS2, 5 μm size particles or equivalent.
Detector—Ultraviolet spectrophotometric detector capable of operating at 248 nm with a sensitivity of about 0.5 absorbance units full scale.
The results of additional studies to investigate the effect of processing parameters such as temperature, time, and dissolved oxygen content on the purity profile of tigecycline solutions using the following materials, methods and procedures are presented in Tables A to O.
The experiments were run in plastic glove bags under normal laboratory light conditions. Plastic glove boxes will be used to control the headspace of the beakers. The batch size was 200 mL. • 1. Prepare the glove bag with a mixture of nitrogen and air to achieve an oxygen level in the solution as per the design. • 2. Place the jacketed beaker on the magnetic stirrer. Connect it to the cooler. Set the cooler to the desired set point. • 3. Add 200 mL of SWFI in to the beaker. Allow equilibrating. Measure the temperature and oxygen content. When it reaches the desired condition, add accurately weighed API and mix until dissolved. If necessary use spatula to aid dissolution. For pH adjustments, use 4 mL of either 0.1N NaOH or 0.1N HCl and 196 mL of WFI for manufacture. • 4. After complete dissolution, Transfer about 5.5 mL of Solution in vials and stopper them. These vials will be stoppered at the appropriate headspace conditions. Place the vials in appropriate temperature conditions. • 5. Sample the vials at 1, 4, 8, 10, 12 and 24 hours. Send the samples for analysis. Freeze the 10, 12 and 24 samples at −20° C. for analysis the following day. • 6. Measure pH and record color of the solution at each time point. Results
The 1-hour samples were taken directly from the beakers. Samples for later time points were collected in stoppered vials processed in the atmosphere of the bag in order to simulate the headspace conditions then placed in water baths or refrigerator to maintain there respective temperature conditions. This was done to maintain safety in the lab. Disposable plastic glove bags require constant flow of a mixture of nitrogen and air to maintain headspace oxygen level that will result in the desired dissolved oxygen (DO) content in the sample. The pH of samples was measured at each sample points.
Strength and degradation profile was analyzed by HPLC as described above. […] Degradation was slightly higher at higher temperature condition.

SMILES: CN(C)c1cc(NC(=O)CNC(C)(C)C)c(O)c2c1C[C@H]1C[C@H]3[C@H](N(C)C)C(O)=C(C(N)=O)C(=O)[C@@]3(O)C(O)=C1C2=O [Tigecycline]
- RRT 1.45 (Run #L, 2° C., 12 Hrs): 0.07%
- RRT 1.58 (Run #L, 2° C., 12 Hrs): BRL (BRL means below reporting limit (meaning less than 0.05% of tigecycline peak))
- RRT 1.64 Mino (Run #L, 2° C., 12 Hrs): 0.14%
- RRT 1.67 MW = 556 (Run #L, 2° C., 12 Hrs): BRL (BRL means below reporting limit (meaning less than 0.05% of tigecycline peak))
- RRT 1.85 MW = 597 (Run #L, 2° C., 12 Hrs): 0.08%
- Strength (Run #L, 2° C., 12 Hrs): 19.448 mg/mL
- Total (Run #L, 2° C., 12 Hrs): 0.58%
- RRT 0.12 MW = 633 (Run #L, 2° C., 24 Hrs): BRL (BRL means below reporting limit (meaning less than 0.05% of tigecycline peak))
- RRT 0.23 MW = 572 (Run #L, 2° C., 24 Hrs): BRL (BRL means below reporting limit (meaning less than 0.05% of tigecycline peak))
- RRT 0.50 MW = 601 (Run #L, 2° C., 24 Hrs): BRL (BRL means below reporting limit (meaning less than 0.05% of tigecycline peak))
- RRT 0.55 MW = 583 (Run #L, 2° C., 24 Hrs): BRL (BRL means below reporting limit (meaning less than 0.05% of tigecycline peak))
- RRT 0.58 (Run #L, 2° C., 24 Hrs): 0.09%
- RRT 0.64 9-Amino (Run #L, 2° C., 24 Hrs): BRL (BRL means below reporting limit (meaning less than 0.05% of tigecycline peak))
- RRT 0.74 Epimer (Run #L, 2° C., 24 Hrs): 0.21%
- RRT 0.76 (Run #L, 2° C., 24 Hrs): BRL (BRL means below reporting limit (meaning less than 0.05% of tigecycline peak))
- RRT 0.78 MW = 557 (Run #L, 2° C., 24 Hrs): BRL (BRL means below reporting limit (meaning less than 0.05% of tigecycline peak))
- RRT 1.12 (Run #L, 2° C., 24 Hrs): BRL (BRL means below reporting limit (meaning less than 0.05% of tigecycline peak))
- RRT 1.45 (Run #L, 2° C., 24 Hrs): 0.08%
- RRT 1.58 (Run #L, 2° C., 24 Hrs): BRL (BRL means below reporting limit (meaning less than 0.05% of tigecycline peak))
- RRT 1.64 Mino (Run #L, 2° C., 24 Hrs): 0.13%
- RRT 1.67 MW = 556 (Run #L, 2° C., 24 Hrs): BRL (BRL means below reporting limit (meaning less than 0.05% of tigecycline peak))
- RRT 1.85 MW = 597 (Run #L, 2° C., 24 Hrs): 0.09%
- Strength (Run #L, 2° C., 24 Hrs): 19.156 mg/mL
- Total (Run #L, 2° C., 24 Hrs): 0.61%
- RRT 0.12 MW = 633 (Run #M, 8° C., 1 Hrs): BRL (BRL means below reporting limit (meaning less than 0.05% of tigecycline peak))
- RRT 0.23 MW = 572 (Run #M, 8° C., 1 Hrs): BRL (BRL means below reporting limit (meaning less than 0.05% of tigecycline peak))
- RRT 0.50 MW = 601 (Run #M, 8° C., 1 Hrs): BRL (BRL means below reporting limit (meaning less than 0.05% of tigecycline peak))
- RRT 0.55 MW = 583 (Run #M, 8° C., 1 Hrs): BRL (BRL means below reporting limit (meaning less than 0.05% of tigecycline peak))
- RRT 0.58 (Run #M, 8° C., 1 Hrs): 0.08%
- RRT 0.64 9-Amino (Run #M, 8° C., 1 Hrs): BRL (BRL means below reporting limit (meaning less than 0.05% of tigecycline peak))
- RRT 0.74 Epimer (Run #M, 8° C., 1 Hrs): 0.20%
- RRT 0.76 (Run #M, 8° C., 1 Hrs): 0.06%
- RRT 0.78 MW = 557 (Run #M, 8° C., 1 Hrs): BRL (BRL means below reporting limit (meaning less than 0.05% of tigecycline peak))
- RRT 1.12 (Run #M, 8° C., 1 Hrs): BRL (BRL means below reporting limit (meaning less than 0.05% of tigecycline peak))
- RRT 1.45 (Run #M, 8° C., 1 Hrs): BRL (BRL means below reporting limit (meaning less than 0.05% of tigecycline peak))
- RRT 1.58 (Run #M, 8° C., 1 Hrs): BRL (BRL means below reporting limit (meaning less than 0.05% of tigecycline peak))
- RRT 1.64 Mino (Run #M, 8° C., 1 Hrs): 0.14%
- RRT 1.67 MW = 556 (Run #M, 8° C., 1 Hrs): BRL (BRL means below reporting limit (meaning less than 0.05% of tigecycline peak))
- RRT 1.85 MW = 597 (Run #M, 8° C., 1 Hrs): BRL (BRL means below reporting limit (meaning less than 0.05% of tigecycline peak))
- Strength (Run #M, 8° C., 1 Hrs): 19.270 mg/mL
- Total (Run #M, 8° C., 1 Hrs): 0.47%
- RRT 0.12 MW = 633 (Run #M, 8° C., 4 Hrs): BRL (BRL means below reporting limit (meaning less than 0.05% of tigecycline peak))
- RRT 0.23 MW = 572 (Run #M, 8° C., 4 Hrs): BRL (BRL means below reporting limit (meaning less than 0.05% of tigecycline peak))
- RRT 0.50 MW = 601 (Run #M, 8° C., 4 Hrs): BRL (BRL means below reporting limit (meaning less than 0.05% of tigecycline peak))
- RRT 0.55 MW = 583 (Run #M, 8° C., 4 Hrs): BRL (BRL means below reporting limit (meaning less than 0.05% of tigecycline peak))
- RRT 0.58 (Run #M, 8° C., 4 Hrs): 0.07%
- RRT 0.64 9-Amino (Run #M, 8° C., 4 Hrs): BRL (BRL means below reporting limit (meaning less than 0.05% of tigecycline peak))
- RRT 0.74 Epimer (Run #M, 8° C., 4 Hrs): 0.23%
- RRT 0.76 (Run #M, 8° C., 4 Hrs): 0.06%
- RRT 0.78 MW = 557 (Run #M, 8° C., 4 Hrs): BRL (BRL means below reporting limit (meaning less than 0.05% of tigecycline peak))
- RRT 1.12 (Run #M, 8° C., 4 Hrs): BRL (BRL means below reporting limit (meaning less than 0.05% of tigecycline peak))
- RRT 1.45 (Run #M, 8° C., 4 Hrs): 0.06%
- RRT 1.58 (Run #M, 8° C., 4 Hrs): BRL (BRL means below reporting limit (meaning less than 0.05% of tigecycline peak))
- RRT 1.64 Mino (Run #M, 8° C., 4 Hrs): 0.08%
- RRT 1.67 MW = 556 (Run #M, 8° C., 4 Hrs): BRL (BRL means below reporting limit (meaning less than 0.05% of tigecycline peak))
- RRT 1.85 MW = 597 (Run #M, 8° C., 4 Hrs): 0.06%
- Strength (Run #M, 8° C., 4 Hrs): 19.340 mg/mL
- Total (Run #M, 8° C., 4 Hrs): 0.57%
- RRT 0.12 MW = 633 (Run #M, 8° C., 8 Hrs): BRL (BRL means below reporting limit (meaning less than 0.05% of tigecycline peak))
- RRT 0.23 MW = 572 (Run #M, 8° C., 8 Hrs): BRL (BRL means below reporting limit (meaning less than 0.05% of tigecycline peak))
- RRT 0.50 MW = 601 (Run #M, 8° C., 8 Hrs): BRL (BRL means below reporting limit (meaning less than 0.05% of tigecycline peak))
- RRT 0.55 MW = 583 (Run #M, 8° C., 8 Hrs): BRL (BRL means below reporting limit (meaning less than 0.05% of tigecycline peak))
- RRT 0.58 (Run #M, 8° C., 8 Hrs): 0.08%
- RRT 0.64 9-Amino (Run #M, 8° C., 8 Hrs): BRL (BRL means below reporting limit (meaning less than 0.05% of tigecycline peak))
- RRT 0.74 Epimer (Run #M, 8° C., 8 Hrs): 0.24%
- RRT 0.76 (Run #M, 8° C., 8 Hrs): 0.06%
- RRT 0.78 MW = 557 (Run #M, 8° C., 8 Hrs): BRL (BRL means below reporting limit (meaning less than 0.05% of tigecycline peak))
- RRT 1.12 (Run #M, 8° C., 8 Hrs): BRL (BRL means below reporting limit (meaning less than 0.05% of tigecycline peak))
- RRT 1.45 (Run #M, 8° C., 8 Hrs): 0.07%
- RRT 1.58 (Run #M, 8° C., 8 Hrs): BRL (BRL means below reporting limit (meaning less than 0.05% of tigecycline peak))
- RRT 1.64 Mino (Run #M, 8° C., 8 Hrs): 0.11%
- RRT 1.67 MW = 556 (Run #M, 8° C., 8 Hrs): BRL (BRL means below reporting limit (meaning less than 0.05% of tigecycline peak))
- RRT 1.85 MW = 597 (Run #M, 8° C., 8 Hrs): 0.06%
- Strength (Run #M, 8° C., 8 Hrs): 19.238 mg/mL
- Total (Run #M, 8° C., 8 Hrs): 0.62%
- RRT 0.12 MW = 633 (Run #M, 8° C., 10 Hrs): BRL (BRL means below reporting limit (meaning less than 0.05% of tigecycline peak))
- RRT 0.23 MW = 572 (Run #M, 8° C., 10 Hrs): BRL (BRL means below reporting limit (meaning less than 0.05% of tigecycline peak))
- RRT 0.50 MW = 601 (Run #M, 8° C., 10 Hrs): BRL (BRL means below reporting limit (meaning less than 0.05% of tigecycline peak))
- RRT 0.55 MW = 583 (Run #M, 8° C., 10 Hrs): 0.09%
- RRT 0.58 (Run #M, 8° C., 10 Hrs): 0.07%
- RRT 0.64 9-Amino (Run #M, 8° C., 10 Hrs): BRL (BRL means below reporting limit (meaning less than 0.05% of tigecycline peak))
- RRT 0.74 Epimer (Run #M, 8° C., 10 Hrs): 0.25%
- RRT 0.76 (Run #M, 8° C., 10 Hrs): 0.05%
- RRT 0.78 MW = 557 (Run #M, 8° C., 10 Hrs): BRL (BRL means below reporting limit (meaning less than 0.05% of tigecycline peak))
